Test results as given in patent US10052387B2, “Ceramide reversal of multi-drug resistance” (Memorial Sloan-Kettering Cancer Center, priority 2013, dated 2018).

B1: sphingomyelinase: exogenous bacterial sphingomyelinase used to generate endogenous ceramide (protein, UniProt P09599 28-333, looked up)
Sphingomyelinase C: DTSTDQNNTLKVMTHNVYMLSTNLYPNWGQSQRADLIGAADYIKNQDVVILNEVFDNSASDRLLGNLKKEYPNQTAVLGRSNGNEWDKTLGSYSSSTPEDGGVAIVSKWPIVEKIQYVFAKGCGPDNLSNKGFVYTKIKKNDRFVHVIGTHLQAEDSMCGKTSPASVRTNQLKEIQDFIKNKNIPNDEYVLFGGDMNVNKINAENNSDSEYASMFKTLHASIPSYTGHTATWDATTNSIAKYNFPDSPAEYLDYIIASKDHANPSFIENKVLQPKSPQWTVTSWLKKYTYDDYSDHYPVAATISMK

Tests used:
ADX cells [1] = assay: Daunorubicin trafficking into the nucleus of ADX cells (confocal microscopy); format: cell-based, Chinese hamster; settings: for percent of ADX cells displaying nuclear daunorubicin: Mean ± 95% CI
Protocol: ADX cells were grown on 4-well slides, 20 uM daunorubicin was added for […], followed by various dose of liposomes containing C16:0 ceramide, sphingomyelin, C16:0 dihydroceramide or phosphatidylcholine for 1 h. Cells were examined under Leica SP-5 inverted confocal microscope. Y axis represents percent of cells with nuclear drug.
ADX cells were grown on 4-well slides. 3.5×10^4 ADX cells were incubated with 20 μM daunorubicin in DMEM HG:F-12 medium without serum. After 2 hours, at which time daunorubicin had reached steady state accumulation in cytoplasmic vesicles, liposomes containing long and very long chain ceramides were added to cells at 0, 1, 2, and 5 μM. After a 1 hour-incubation at 37° C., nuclear localization of daunorubicin was determined by confocal microscopy. Cells were examined under Leica SP-5 inverted confocal microscope. Y axis represents percent of cells with nuclear drug.

ADX cells [2] = assay: MTT cell survival assay in MDR ADX cells; format: cell-based, Chinese hamster; settings: for chemosensitization of ADX cells by sphingomyelinase: exogenous sphingomyelinase, data not shown; for EC50: Cricetulus griseus; for enhanced cell kill: ADX MDR cells with daunorubicin
Protocol: (§1) A, time course of sphingomyelin changes in DC-3F and ADX cells after B. cereus SMase (0.05 U/mL) treatment. B, time course of ceramide generation. C, DC-3F and ADX cells were treated with increasing doses of B. cereus SMase (0-2 U/mL) and cell survival was measured by MTT (3-(4,5-dimethylthiazol-2-yl)-2,5-diphenyltetrazolium bromide) tetrazolium reduction (MTT) assay. D, Cells were seeded in 96-well plates (2×10^3 cells/well) in a 0.1 ml DME:F12 medium containing 5% FBS and cultured at 37° C. for 24 hours before addition of daunorubicin.
(§2) A, DC-3F and ADX cells were treated with increasing doses of daunorubicin. B, DC-3F and ADX cells were incubated with B. cereus SMase (0.0-0.05 U/ml) and treated with daunorubicin for 1 day. Cell survival was measured by MTT assay. Data are from one representative of three independent studies.

DC-3F cells = assay: MTT cell survival assay in parental DC-3F cells; format: cell-based, Chinese hamster
Protocol: as §1, §2

DC-3F tumor = assay: DC-3F flank tumor response to doxorubicin; format: in vivo, athymic nude mice; settings: 8 mg/kg×3
Protocol: (§3) Tumors were created in the right flanks of athymic nude mice using 5×10^6 DC-3F cells or ADX cells and at tumor volumes of 100-150 mm^3 were treated with Doxorubicin 8 mg/kg i.v. weekly (arrows) for 3 weeks. Tumor volumes were measured daily according to the formula of Kim et al. (Cancer Res 1986: 46, 1120) for 3 months. Collated data in upper panels represent mean±SEM. Data in lower panels represent individual tumor patterns.

[3] = ×4 doses/25 g mouse; cited from earlier work
ADX tumor = assay: ADX MDR flank tumor response; settings: 8 mg/kg×3
Protocol: as §3
5×10^6 ADX cells were implanted into athymic nude mice by s.c. injection. Treatment was started on day 21 when tumor was 100 mm^3. 8 mg/kg Dox (arrows) was injected i.v. every 7 days followed by 1 μmol/mouse liposomal C16:0 ceramide for a total of 3 treatments (total Dox=24 mg/kg, the MTD in mice). Left panel of A) represents individual tumor growth with Dox alone. Right panel of A) represents tumor response when treated with Dox+1 μmol/mouse liposomal ceramide. Panel B is mean tumor growth response of Dox alone and combined treatment.
ADX flank tumors (in athymic Nude-FoxN1 nu mice) were loaded to isotopic steady state for 1 h by systemic administration of Dox (20 mg/kg), and 1 μmol of C16:0 ceramide containing liposomes/mouse was injected i.v. Mice were sacrificed 1 h thereafter, and tumors snap frozen in OCT at −80° C.

[4] = Doxorubicin MTD studies in mice; settings: mouse, in vivo, intravenous, 8 mg/kg
Text: Methods: Liposome Delivery, MTD, PK: Liposomes and free doxorubicin are delivered intravenously and MTD and PK determined in accordance with known protocols.

Row | Molecule | percent of ADX cells displaying nuclear daunorubicin (ADX cells [1]; ceramide 1 μM) [%] | percent of ADX cells displaying nuclear daunorubicin (ADX cells [1]; ceramide 2 μM) [%] | percent of ADX cells displaying nuclear daunorubicin (ADX cells [1]; ceramide 5 μM) [%] | also measured
1 | CCCCCCCCCCCCC/C=C/[C@@H](O)[C@H](CO)NC(=O)CCCCCCCCC [C10:0] | 6.8 ± 2.2 | 13.1 ± 2.8 | 20.0 ± 2.4 | 
2 | CCCCCCCCCCCCC/C=C/[C@@H](O)[C@H](CO)NC(=O)CCCCCCC [C8:0] | 11.4 ± 1.9 | 19.8 ± 2.1 | 35.5 ± 2.4 | 
3 | N.N.[Cl][Pt][Cl] [cis-platinum] |  |  |  | chemosensitization of ADX cells by sphingomyelinase (ADX cells [2]): chemosensitization of ADX cells was also achieved
4 | COc1cccc2c1C(=O)c1c(O)c3c(c(O)c1C2=O)C[C@@](O)(C(C)=O)C[C@@H]3O[C@H]1C[C@H](N)[C@H](O)[C@H](C)O1 [daunorubicin] |  |  |  | EC50 (DC-3F cells; Cricetulus griseus, DC3F, parental DC-3F cells): 0.8 µM; EC50 (ADX cells [2]; ADX cells treated with increasing doses of exogenous sphingomyelinase): 4 µM; EC50 (ADX cells [2]; ADX cells, without sphingomyelinase): 92 µM
5 | COc1cccc2c1C(=O)c1c(O)c3c(c(O)c1C2=O)C[C@@](O)(C(=O)CO)C[C@@H]3O[C@H]1C[C@H](N)[C@H](O)[C@H](C)O1 [doxorubicin] |  |  |  | tumor response to doxorubicin (DC-3F tumor): sensitive; published MTD [3]: about 9 mg/kg; tumor response to doxorubicin (ADX tumor): totally resistant; MTD at 3 weeks [4]: 24 mg/kg
6 | CCCCCCCCCCCCC/C=C/[C@@H](O)[C@H](CO)NC(=O)CCCCCCCCCCCCC [C14:0] | 7.4 ± 2.4 | 17.6 ± 3.4 | 23.4 ± 3.2 | 
7 | CN[C@@H]1C[C@H]2O[C@@](C)([C@@H]1OC)n1c3ccccc3c3c4c(c5c6ccccc6n2c5c31)C(=O)NC4 [staurosporine] |  |  |  | chemosensitization of ADX cells by sphingomyelinase (ADX cells [2]): no sensitization was achieved
8 | CCCCCCCCCCCCC/C=C/[C@@H](O)[C@H](CO)NC(=O)CCC [C4:0] | 8.0 ± 2.4 | 11.9 ± 2.7 | 13.0 ± 2.1 | 
9 | CCCCCCCCCCCCC/C=C/[C@@H](O)[C@H](CO)NC(=O)CCCCCCCCCCCCCCC [C16:0, N-palmitoyl (C16:0) ceramide] | 13.9 ± 1.7 | 24.3 ± 2.0 | 48.3 ± 2.7 | enhanced cell kill (ADX cells [2]): 25 fold; trafficking of daunorubicin into the nucleus (ADX cells [1]; ADX cells pre-loaded with 20 μM daunorubicin): nuclear transfer occurred only with C16:0 ceramide treatment
10 | CC[C@]1(O)C[C@H]2CN(CCc3c([nH]c4ccccc34)[C@@](C(=O)OC)(c3cc4c(cc3OC)N(C=O)[C@H]3[C@@](O)(C(=O)OC)[C@H](OC(C)=O)[C@]5(CC)C=CCN6CC[C@]43[C@@H]65)C2)C1 [vincristine] |  |  |  | chemosensitization of ADX cells by sphingomyelinase (ADX cells [2]): chemosensitization of ADX cells was also achieved
11 | CCCCCCCCCCCCC/C=C/[C@@H](O)[C@H](CO)NC(C)=O [C2:0] | 7.5 ± 2.5 | 12.5 ± 3.3 | 7.0 ± 1.6 | 
12 | CCCCCCCCCCCCC/C=C/[C@@H](O)[C@H](CO)NC(=O)CCCCCCCCCCC [C12:0] | 8.9 ± 3.0 | 18.8 ± 3.2 | 22.3 ± 3.1 | 
13 | CCCCCCCCCCCCC/C=C/[C@@H](O)[C@H](CO)NC(=O)CCCCC [C6:0] | 8.8 ± 2.4 | 12.2 ± 2.0 | 16.2 ± 2.3 | 
14 | B1 |  |  |  | effect of sphingomyelinase treatment on DC-3F cells (DC-3F cells; daunorubicin sensitivity): unaffected; enhanced cell kill (ADX cells [2]): 25 fold
